# Assay results published in patent publication US20230040386A1, “URSODEOXYCHOLIC ACID-CONTAINING AGENT FOR TREATING OR PREVENTING PRESBYOPIA” (priority 2018, published 2023).
# System: lens
# Assay: Pharmacological Test 2: lens elasticity after instillation of sodium ursodeoxycholate
# Assay type: in vivo, C57BL/6J mice
# Details: 1.5% (w/v) sample, 2.5 μL/eye, 3 times per day, 12 to 15 days, vs vehicle control
# Description: A vehicle comprising 0.1% (w/v) of ethyl pyruvate, 0.269% (w/v) of sodium dihydrogenphosphate monohydrate (NaH2PO4H2O), 0.433% (w/v) of disodium hydrogenphosphate (Na2HPO4), 0.2% (w/v) of hydroxypropyl methylcellulose, 0.5% (w/v) of NaCl was prepared. Sodium ursodeoxycholate was sonicated with the addition of the vehicle to prepare a 1.5% (w/v) suspension. The resulting 1.5% (w/v) suspension was diluted with the vehicle to prepare a 0.5% (w/v) suspension. Further, the resulting 0.5% (w/v) suspension was diluted with the vehicle to prepare a 0.15% (w/v) suspension. The total amount of each sample to be used in one day was prepared before use. EV06 was sonicated with the addition of the vehicle to prepare a 1.5% (w/v) solution. The total amount of the sample to be used in one day was prepared before use. 1) Each test sample (2.5 μL/eye) was instilled into the right eye of 8-month-old C57BL/6J mice with a Pipetman 3 times per day (around 9:00, 13:00 and 17:00) for 12 to 15 days. 2) After the final instillation, the mice were euthanized by carbon dioxide inhalation, and then the eyeballs were extracted and rinsed with Hank's balanced salt solution (HBSS)). 3) The sclera near the optic nerve was cut with a razor, the lens was removed through the incision, and the removed lens was immersed in HBSS. 4) The lens was placed on a glass slide, and an all-in-one fluorescence microscope BZ-9000 (Keyence) was used to capture an image of the lens (Image a). 5) Next, one cover glass (Corning^(registered trade mark) 22×22 mm Square) was placed on the lens, and an image in which the thickness of the lens changed due to the weight was similarly captured (Image b). 6) A change in the lens diameter was calculated from Equation 1 wherein the lens diameter of Image a is subtracted from the lens diameter of Image b, as described below. Then, the lens elasticity improvement of each sample group compared with the vehicle control group was calculated from Equation 2 described below. The mean of the vehicle control group was based on 5 eyes, the mean of each sodium ursodeoxycholate sample group was based on 10 eyes, and the mean of the EV06 sample group was based on 10 eyes. Change in lens diameter Lens diameter in image b of each test sample−Lens diameter in Image a of each test sample (Equation 1) Lens elasticity improvement of each sample group=Mean change in lens diameter of each Test sample group−Mean change in lens diameter of Vehicle control group (Equation 2)
smiles,measurement,value
"C[N+](C)(C)CCOC(=O)CCCC[C@@H]1CCSS1 [EV06, lipoic acid choline ester]",Lens elasticity improvement,38.2 μm
